From paper PMC6078800 (Nature biotechnology, 2018)

What was measured:
[1] = target: T1, Mp-KYNase (Mucilaginibacter paludis, UniProt H1YAV1); assay: absorbance at […] nm, initial rates, Michaelis-Menten fit; type: biochemical; settings: DPBS pH 7.4; enzyme PLP-loaded; not PEGylated
T1 sequence (H1YAV1 1-429): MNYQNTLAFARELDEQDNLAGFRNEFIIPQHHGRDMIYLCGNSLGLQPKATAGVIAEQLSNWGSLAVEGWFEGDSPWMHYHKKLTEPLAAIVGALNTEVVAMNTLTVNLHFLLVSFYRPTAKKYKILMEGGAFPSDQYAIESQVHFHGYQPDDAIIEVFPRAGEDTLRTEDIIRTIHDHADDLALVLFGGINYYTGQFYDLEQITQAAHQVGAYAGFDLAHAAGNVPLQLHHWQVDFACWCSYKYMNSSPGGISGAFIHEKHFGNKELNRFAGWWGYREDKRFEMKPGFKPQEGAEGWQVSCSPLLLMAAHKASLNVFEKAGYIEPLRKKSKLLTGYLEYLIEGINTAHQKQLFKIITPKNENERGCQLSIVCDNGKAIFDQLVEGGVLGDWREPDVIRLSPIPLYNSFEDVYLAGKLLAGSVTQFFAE

[2] = target: T2, Pf-KYNase (Pseudomonas fluorescens, UniProt P83788); assay: as above; type: biochemical; settings: DPBS pH 7.4; enzyme PLP-loaded; not PEGylated
T2 sequence (P83788 1-416): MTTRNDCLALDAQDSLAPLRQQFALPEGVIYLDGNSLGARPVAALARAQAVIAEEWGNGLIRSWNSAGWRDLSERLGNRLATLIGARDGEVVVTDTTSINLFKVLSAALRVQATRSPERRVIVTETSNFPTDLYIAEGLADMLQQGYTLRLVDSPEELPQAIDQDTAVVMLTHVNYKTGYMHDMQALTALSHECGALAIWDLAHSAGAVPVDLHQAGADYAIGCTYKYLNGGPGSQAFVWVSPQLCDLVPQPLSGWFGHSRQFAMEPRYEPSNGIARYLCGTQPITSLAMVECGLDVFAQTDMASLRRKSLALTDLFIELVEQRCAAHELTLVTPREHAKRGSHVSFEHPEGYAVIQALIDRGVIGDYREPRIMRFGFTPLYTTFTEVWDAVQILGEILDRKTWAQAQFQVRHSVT

Nc1ccccc1C(=O)C[C@H](N)C(=O)O [kynurenine]
KM [1]: kinetic parameters for the kynureninase enzymes against both kynurenine (Kyn, Sigma) | KM [2]: kinetic parameters for the kynureninase enzymes against both kynurenine (Kyn, Sigma)
